Assay results taken from PubChem BioAssay (NCI).
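Step 1: Grow cells in 96-well plates. Step 2: Expose to compound for 48 hours at 5 concentrations. Step 3: Interpolate endpoints linearly; if unreached, use highest concentration. TGI denotes the concentration required for complete inhibition of growth.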

Key:
Assay in all cases: DTP human tumour cell line panel, 48 h
786-0 renal = tested on: 786-0 renal
A549 NSCLC = tested on: A549 NSCLC
ACHN renal = tested on: ACHN renal
BT-549 breast = tested on: BT-549 breast
CAKI-1 renal = tested on: CAKI-1 renal
CCRF-CEM leukemia = tested on: CCRF-CEM leukemia
COLO 205 colon = tested on: COLO 205 colon
DU-145 prostate = tested on: DU-145 prostate
EKVX NSCLC = tested on: EKVX NSCLC
HCC-2998 colon = tested on: HCC-2998 colon
HCT-116 colon = tested on: HCT-116 colon
HCT-15 colon = tested on: HCT-15 colon
HL-60(TB) leukemia = tested on: HL-60(TB) leukemia
HOP-62 NSCLC = tested on: HOP-62 NSCLC
HOP-92 NSCLC = tested on: HOP-92 NSCLC
HS 578T breast = tested on: HS 578T breast
HT29 colon = tested on: HT29 colon
IGROV1 ovarian = tested on: IGROV1 ovarian
K-562 leukemia = tested on: K-562 leukemia
KM12 colon = tested on: KM12 colon
M14 melanoma = tested on: M14 melanoma
MALME-3M melanoma = tested on: MALME-3M melanoma
MCF7 breast = tested on: MCF7 breast
MDA-MB-231 breast = tested on: MDA-MB-231 breast
MDA-MB-435 = tested on: MDA-MB-435
MDA-N = tested on: MDA-N
MOLT-4 leukemia = tested on: MOLT-4 leukemia
NCI-H226 lung = tested on: NCI-H226 lung
NCI-H23 lung = tested on: NCI-H23 lung
NCI-H460 lung = tested on: NCI-H460 lung
NCI-H522 lung = tested on: NCI-H522 lung
NCI/ADR-RES ovarian = tested on: NCI/ADR-RES ovarian
OVCAR-3 ovarian = tested on: OVCAR-3 ovarian
OVCAR-4 ovarian = tested on: OVCAR-4 ovarian
OVCAR-5 ovarian = tested on: OVCAR-5 ovarian
OVCAR-8 ovarian = tested on: OVCAR-8 ovarian
PC-3 prostate = tested on: PC-3 prostate
RPMI-8226 leukemia = tested on: RPMI-8226 leukemia
RXF 393 renal = tested on: RXF 393 renal
SF-268 CNS = tested on: SF-268 CNS
SF-295 CNS = tested on: SF-295 CNS
SF-539 CNS = tested on: SF-539 CNS
SK-MEL-2 melanoma = tested on: SK-MEL-2 melanoma
SK-MEL-28 melanoma = tested on: SK-MEL-28 melanoma
SK-MEL-5 melanoma = tested on: SK-MEL-5 melanoma
SK-OV-3 ovarian = tested on: SK-OV-3 ovarian
SN12C renal = tested on: SN12C renal
SNB-19 CNS = tested on: SNB-19 CNS
SR leukemia = tested on: SR leukemia
SW-620 colon = tested on: SW-620 colon
T-47D breast = tested on: T-47D breast
TK-10 renal = tested on: TK-10 renal
U251 CNS = tested on: U251 CNS
UACC-257 melanoma = tested on: UACC-257 melanoma
UACC-62 melanoma = tested on: UACC-62 melanoma
UO-31 renal = tested on: UO-31 renal
LOX IMVI melanoma = tested on: LOX IMVI melanoma
SNB-75 CNS = tested on: SNB-75 CNS

In the case of `O=S(=O)(O)c1ccc(N=Nc2ccc(N=Nc3c(O)ccc4ccc(S(=O)(=O)O)cc34)cc2)cc1`, the TGI (786-0 renal) is reported as greater than 100 µM, the TGI (A549 NSCLC) is reported as greater than 100 µM and the TGI (ACHN renal) is reported as greater than 100 µM. The TGI (BT-549 breast) was greater than 100 µM, the TGI (CAKI-1 renal) was greater than 100 µM and the TGI (CCRF-CEM leukemia) was greater than 100 µM. The TGI (COLO 205 colon) was greater than 100 µM, the TGI (DU-145 prostate) was greater than 100 µM and the TGI (EKVX NSCLC) was greater than 100 µM. It also gave a TGI (HCC-2998 colon) greater than 100 µM, a TGI (HCT-116 colon) greater than 100 µM and a TGI (HCT-15 colon) greater than 100 µM. It also gave a TGI (HL-60(TB) leukemia) greater than 100 µM, a TGI (HOP-62 NSCLC) greater than 100 µM and a TGI (HOP-92 NSCLC) greater than 100 µM. It also gave a TGI (HS 578T breast) greater than 100 µM, a TGI (HT29 colon) greater than 100 µM and a TGI (IGROV1 ovarian) greater than 100 µM. For the same molecule, the TGI (K-562 leukemia) was greater than 100 µM, the TGI (KM12 colon) was greater than 100 µM and the TGI (M14 melanoma) was greater than 100 µM. For the same molecule, the TGI (MALME-3M melanoma) was greater than 100 µM, the TGI (MCF7 breast) was greater than 100 µM and the TGI (MDA-MB-231 breast) was greater than 100 µM. For the same molecule, the TGI (MDA-MB-435) was greater than 100 µM, the TGI (MDA-N) was greater than 100 µM and the TGI (MOLT-4 leukemia) was greater than 100 µM. For the same molecule, the TGI (NCI-H226 lung) was greater than 100 µM, the TGI (NCI-H23 lung) was greater than 100 µM and the TGI (NCI-H460 lung) was greater than 100 µM. For the same molecule, the TGI (NCI-H522 lung) was greater than 100 µM, the TGI (NCI/ADR-RES ovarian) was greater than 100 µM and the TGI (OVCAR-3 ovarian) was greater than 100 µM. It also gave a TGI (OVCAR-4 ovarian) greater than 100 µM, a TGI (OVCAR-5 ovarian) greater than 100 µM and a TGI (OVCAR-8 ovarian) greater than 100 µM. The TGI (PC-3 prostate) was greater than 100 µM, the TGI (RPMI-8226 leukemia) was greater than 100 µM and the TGI (RXF 393 renal) was greater than 100 µM. For the same molecule, the TGI (SF-268 CNS) was greater than 100 µM, the TGI (SF-295 CNS) was greater than 100 µM and the TGI (SF-539 CNS) was greater than 100 µM. It also gave a TGI (SK-MEL-2 melanoma) greater than 100 µM, a TGI (SK-MEL-28 melanoma) greater than 100 µM and a TGI (SK-MEL-5 melanoma) greater than 100 µM. The TGI (SK-OV-3 ovarian) was greater than 100 µM, the TGI (SN12C renal) was greater than 100 µM and the TGI (SNB-19 CNS) was greater than 100 µM. For the same molecule, the TGI (SR leukemia) was greater than 100 µM, the TGI (SW-620 colon) was greater than 100 µM and the TGI (T-47D breast) was greater than 100 µM. The TGI (TK-10 renal) was greater than 100 µM, the TGI (U251 CNS) was greater than 100 µM and the TGI (UACC-257 melanoma) was greater than 100 µM. The TGI (UACC-62 melanoma) was greater than 100 µM and the TGI (UO-31 renal) was greater than 100 µM.

`CC(C)(C)OC(=O)NCC(c1c[nH]c2cc(Br)ccc12)c1c[nH]c2cc(Br)ccc12` showed a TGI (786-0 renal) of 33.5 µM, a TGI (A549 NSCLC) of 44.7 µM and a TGI (ACHN renal) of 30.3 µM. The TGI (BT-549 breast) was 30.3 µM, the TGI (CAKI-1 renal) was 91.5 µM and the TGI (CCRF-CEM leukemia) was greater than 100 µM. For the same molecule, the TGI (COLO 205 colon) was 34.7 µM, the TGI (DU-145 prostate) was 31.7 µM and the TGI (EKVX NSCLC) was 32.8 µM. The TGI (HCC-2998 colon) was 38.4 µM, the TGI (HCT-116 colon) was 31.4 µM and the TGI (HCT-15 colon) was 30.2 µM. The TGI (HL-60(TB) leukemia) was 64.2 µM, the TGI (HOP-62 NSCLC) was 33.2 µM and the TGI (HOP-92 NSCLC) was 28.6 µM. The TGI (HS 578T breast) was 46.4 µM, the TGI (HT29 colon) was 33.5 µM and the TGI (IGROV1 ovarian) was 29.4 µM. It also gave a TGI (K-562 leukemia) greater than 100 µM, a TGI (KM12 colon) of 37.3 µM and a TGI (LOX IMVI melanoma) of 32.2 µM. The TGI (M14 melanoma) was 37.3 µM, the TGI (MALME-3M melanoma) was 31.7 µM and the TGI (MCF7 breast) was 34.7 µM. For the same molecule, the TGI (MDA-MB-231 breast) was 32.4 µM, the TGI (MDA-MB-435) was 31.9 µM and the TGI (MDA-N) was 34.4 µM. It also gave a TGI (MOLT-4 leukemia) greater than 100 µM, a TGI (NCI-H226 lung) of 34.5 µM and a TGI (NCI-H23 lung) of 34.2 µM. For the same molecule, the TGI (NCI-H460 lung) was 48.7 µM, the TGI (NCI-H522 lung) was 32.7 µM and the TGI (NCI/ADR-RES ovarian) was 35.9 µM. For the same molecule, the TGI (OVCAR-3 ovarian) was 29.1 µM, the TGI (OVCAR-4 ovarian) was 32.9 µM and the TGI (OVCAR-5 ovarian) was 31.4 µM. The TGI (OVCAR-8 ovarian) was 36.5 µM, the TGI (PC-3 prostate) was 31.1 µM and the TGI (RPMI-8226 leukemia) was greater than 100 µM. It also gave a TGI (RXF 393 renal) of 32 µM, a TGI (SF-268 CNS) of 31.7 µM and a TGI (SF-295 CNS) of 36.2 µM. For the same molecule, the TGI (SF-539 CNS) was 38 µM, the TGI (SK-MEL-2 melanoma) was 34 µM and the TGI (SK-MEL-28 melanoma) was 83.4 µM. For the same molecule, the TGI (SK-MEL-5 melanoma) was 34.2 µM, the TGI (SK-OV-3 ovarian) was 29.5 µM and the TGI (SN12C renal) was 33.6 µM. It also gave a TGI (SNB-19 CNS) of 46.2 µM, a TGI (SNB-75 CNS) of 49.6 µM and a TGI (SR leukemia) greater than 100 µM. The TGI (SW-620 colon) was greater than 100 µM, the TGI (T-47D breast) was 35.2 µM and the TGI (TK-10 renal) was 35.9 µM. It also gave a TGI (U251 CNS) of 31 µM, a TGI (UACC-257 melanoma) of 44.6 µM and a TGI (UACC-62 melanoma) of 30.1 µM. The TGI (UO-31 renal) was 34.5 µM.
